In patent publication US9125937B2, “Labelled analogues of halobenzamides as multimodal radiopharmaceuticals and their precursors” (INSTITUT NATIONAL DE LA SANTE ET DE LA RECHERCHE MEDICALE …, priority 2008, dated 2015):
Values joined by “and” are separate entries in the source; they are usually repeats but may differ in a detail not shown here. Equal values may be shown once. Where a name gives a salt, the structure may show the parent alone. Each block holds one compound with its values, some of them ahead of it.

What was measured:
B16 F0 murine melanoma = assay: Biodistribution study by planar scintigraphic imaging (gamma camera), tumour uptake quantification; format: in vivo, C57BL6 male mice; settings: i.v.
Protocol: (§1) Tumour Implantation. For transplantation, cells grown in monolayer culture to confluence were trypsinized and washed with phosphate buffer saline (PBS). They were resuspended in PBS and each mouse received 0.1 mL subcutaneously (3×10^5 cells) on the left flank in order to allow a tumour growth on the body side. Ten days later, the tumours became palpable with a percentage of tumour take of 98-100%.
The in vivo biodistribution and kinetic profile of each radiolabelled (iodine-125) compound have been studied in C57BL6 male mice bearing the B16 F0 murine melanoma by repeated planar scintigraphic imaging which allows the tumour uptake follow-up in the same animal.
Gamma Camera. In vivo radionuclide imaging was performed using a γ IMAGER (Biospace Mesures, Paris, France) especially dedicated for small animal, a scintigraphic camera with a continuous 4 mm thick×120 mm diameter CsI(Na) crystal, a position-sensitive Hamamatsu R3292 photomultiplier and a 10 cm field of view.
Imaging Protocol. On day 14 after tumour implantation (tumour weight 0.25±0.10 g) each [^125I]-radioiodinated compound was administered intravenously via a tail vein (0.1 μmol, range 3.7 to 7 MBq/animal) in three mice for each compound. At different times after administration (1, 3, 6, 24, 72 hours, 5, 7, 10 and 15 days), mice were anesthetized with 0.2 mL, for a 20 g mouse, of a ketamine-xylazine mixture in saline (1-0.25 mL for 5 mL) by i. p. administration, and repeated planar scintigraphic whole body imaging (mouse laying in anterior position on the camera field) were performed by an acquisition time of 10 min. For this study, the camera was equipped with a 1.8/0.2/20 collimator (hole diameter/septum thickness/height in mm).
Tumoural Radioactivity Quantification Approach. The injected activity to each mouse was determined from scintigraphic imaging of the syringe before and after the injection using the γ-IMAGER.
Regions of interest (ROIs) were delineated over the whole body image: whole body uptake area (or the various fixing areas, eyes, thyroid and abdomen) and one for the tumour uptake area. In the various ROIs, the activity (cpm) was quantified using the Biospace measures γ VISION+software. These values were normalized to the injected dose. For the tumour, the activity was also normalized to the tumour weight. Firstly, the volume was calculated from the two dimensions caliper measurement (Bissery, M. C.; Guenard, D.; Gueritte-Voegelin, F.; Lavelle, F. Experimental antitumour activity of taxotere (RP 56976, NSC 628503) a taxol analogue. Cancer res. 1991, 51, 4845-4852). Secondly, the weight was determined from the volume value corrected by a factor determined from a large panel of experiments (Weight g=volume mm^3×0.6). The data were expressed as % ID/g of B 16F0 melanoma tumour.

B16F0 melanoma tumour [1] = assay: Tumour uptake by whole body sectioning autoradiography; format: in vivo, mice
From the text: (ii) A comparison camera quantified in vivo values with values determined using the whole body sectioning conventional autoradiographic method has been done for several compounds. The correlation coefficient obtained between the two methods was 0.92.
(§2) (iii) For the compound N-(2-diethylaminoethyl)-6-iodoquinoxaline-2-carboxamide, which is described in PCT application n°PCT/IB2007/052992 as compound n°45 in table I of said patent application (hereinafter called “ICF01012”), the tumour uptake has been quantified by 3 methods: camera imaging, autoradiography and counting of tumour tissue after dissection (gamma counter), values are summarized below.

B16F0 melanoma tumour [2] = assay: Tumour uptake by counting of tumour tissue after dissection (gamma counter); format: in vivo, mice
From the text: as §2

[3] = system: subcutaneous B16F0 melanoma; assay: Radionuclide therapy experiment (anti-tumoural efficacy); format: in vivo, C57BL/6J mice
Protocol: Animals. All experiments were carried out in accordance with the institution recommendations based on the guide for the care and use of laboratory animals. For therapy experiment, we used 6- to 8-week-old C57BL/6J male mice (Charles River Laboratories).
as §1
[^131I]11 treatment was administered intravenously at days 6 and 10 after tumour implantation (2×18.5 MBq) in groups of 10 mice. In the same conditions untreated-animals were studied. From three days before the treatment and along the experiment, lugol's iodine solution was added in the two mice groups alimentation to block iodine thyroid uptake. To monitor tumoral growth, tumor volume in mm^3 was calculated twice a week from the measurement of two perpendicular diameters using a caliper according to the formula L×S^2/2 where L and S are the largest and smallest diameters in mm respectively. At day 19 of the experiment, mice were sacrificed. Tumours were removed, dissected and weighted.
Statistical Analyses. In experiment data are given as mean+SEM and were analyzed by the Student or ANOVA tests.
Anti-tumoural Efficacy of Targeted Radionuclide Therapy. To assess the therapeutic efficacy of compound [^131I]11 in C57BL/6J mice bearing subcutaneous B16F0 melanoma cells, we injected twice 18.5 MBq [^131I]11 into group of 10 mice. […] The body weight of mice in all groups was stable (data not shown). The weight of tumours at 19 days were 2.29±1.03 g and 0.72±0.28 g respectively for controls and treated.

[4] = system: B16F10 and B16F0 murine melanoma tumour grafts; assay: PET imaging of melanoma-bearing mice; format: in vivo, C57BL6 mice
Protocol: Imaging Protocol. Three sets of mice were prepared for PET imaging as described in FIG. 3 in annex: • (Set 1) Four C57BL6 mice bearing both B16F10 and B16F0 murine melanoma tumour grafts on the flanks were anaesthetized with isoflurane and injected with [^18F]10 (200 μCi). Two were imaged immediately during the first hour after injection, allowed to recover from anaesthesia, anaesthetized again at two hours post injection and imaged between two and two-and-a-half hour after injection, allowed to recover from anaesthesia, anaesthetized again at four hours post injection and imaged between four and four-and-a-half hour after injection, then sacrificed and their organs weighed and counted. Two other mice were allowed to recover from anaesthesia, anaesthetized at two hours post injection and imaged between two and two-and-a-half hour after injection, allowed to recover from anaesthesia, anaesthetized again at four hours post injection and imaged between four and four-and-a-half hour after injection, then sacrificed and their organs weighed and counted. • (Set 2) Two C57BL6 mice bearing both B16F10 and B16F0 murine melanoma tumour grafts on the shoulders (so as to avoid contaminating signals originating from with digestive and urinary tracts) were injected with [^18F]10 (200 μCi), imaged under isoflurane anesthesia continuously during two hours, then sacrificed and their organs weighed and counted. • (Set 3) One C57BL6 mouse bearing both B16F10 and B16F0 murine melanoma tumour grafts on the shoulders (so as to avoid contaminating signals originating from with digestive and urinary tracts) was injected with [^18F]10 (600 μCi), allowed to recover, anaesthetized with isoflurane six hours post injection, imaged during 30 minutes between six and six-and-a-half hours post injection.
PET Imaging. […] All values of radioactivity concentrations were normalized for radioactivity decay, as well as by the injected dose of radiotracer, and expressed as percentage of the injected dose per volume of tissue (% ID/cc). […]

[5] = system: B16F10 and B16F0 murine melanoma tumour grafts; assay: Ex vivo biodistribution by organ counting after PET imaging; format: in vivo; settings: two-and-a-half and four-and-a-half hours after i.v. injection, FIG. 4
Protocol: Imaging Protocol. Three sets of mice were prepared for PET imaging as described in FIG. 3 in annex: • (Set 1) Four C57BL6 mice bearing both B16F10 and B16F0 murine melanoma tumour grafts on the flanks were anaesthetized with isoflurane and injected with [^18F]10 (200 μCi). Two were imaged immediately during the first hour after injection, allowed to recover from anaesthesia, anaesthetized again at two hours post injection and imaged between two and two-and-a-half hour after injection, allowed to recover from anaesthesia, anaesthetized again at four hours post injection and imaged between four and four-and-a-half hour after injection, then sacrificed and their organs weighed and counted. […]
Biodistribution. [^18F]10 biodistribution was analysed for the mice of set 1 (n=4) four-and-a-half hours after injection, and for the mice of set 2 (n=2) two-and-a-half hours after injection. Animals were sacrificed by lethal injection of pentobarbital and organs were collected, weighed and radioactivity of each sample was measured on a Cobra gamma counter (Packard). […]

melting point: 88 to 90 °C and 89 °C
Compound: CCN(CC)CCNC(=O)c1cnc2ccc(I)cc2c1F [Compound 96, N-[2-(diethylamino)ethyl]-4-fluoro-6-iodoquinoline-3-carboxamide]

melting point: 157 to 159 °C
Compound: CCN(CCNC(=O)c1ccnc(F)c1)CCNC(=O)c1cnc2cc(I)ccc2n1.Cl.Cl

melting point: 157 to 159 °C
Compound: CCN(CCNC(=O)c1ccc2cc(I)ccc2c1)CCOc1cccnc1F.Cl

melting point: 99 to 101 °C (dec.)
Compound: CCN(CCNC(=O)c1cnc2cc(I)ccc2n1)CCNc1cccc(F)n1.Cl.Cl

Compound: CCN(CC)CCNC(=O)c1cnc2cc([125I])ccc2n1 [[^125I]ICF01012, reference compound]
Radioactive concentration in tumour (tumoural uptake) (B16 F0 murine melanoma; 1 H post injection): 21.8 ± 6.6 % ID/g
Radioactive concentration in tumour (tumoural uptake) (B16 F0 murine melanoma; 3 H post injection): 26.2 ± 6.6 % ID/g and 26.3 ± 6.6 % ID/g
Radioactive concentration in tumour (tumoural uptake) (B16 F0 murine melanoma; 6 H post injection): 29.6 ± 8.4 % ID/g
Radioactive concentration in tumour (tumoural uptake) (B16 F0 murine melanoma; 24 H post injection): 28.0 ± 8.1 % ID/g and 28.0 ± 8.2 % ID/g
Radioactive concentration in tumour (tumoural uptake) (B16 F0 murine melanoma; 72 H post injection): 12.3 ± 3.7 % ID/g
Radioactive concentration in tumour (tumoural uptake) (B16 F0 murine melanoma; 120 H post injection): 7.3 ± 3.6 % ID/g
Radioactive concentration in tumour (tumoural uptake) (B16 F0 murine melanoma; 168 H post injection): 3.4 ± 0.3 % ID/g
Radioactive concentration in tumour (tumoural uptake) (B16 F0 murine melanoma; 240 H post injection): 1.9 ± 0.4 % ID/g
Radioactive concentration in tumour (B16F0 melanoma tumour [1]; 1 H): 17 ± 11.1 % ID/g
Radioactive concentration in tumour (B16F0 melanoma tumour [1]; 3 H): 27.7 ± 7.0 % ID/g
Radioactive concentration in tumour (B16F0 melanoma tumour [1]; 6 H): 36.4 ± 7.6 % ID/g
Radioactive concentration in tumour (B16F0 melanoma tumour [1]; 24 H): 21.7 ± 10.8 % ID/g
Radioactive concentration in tumour (B16F0 melanoma tumour [1]; 72 H): 12.5 ± 1.6 % ID/g
Radioactive concentration in tumour (B16F0 melanoma tumour [2]; 1 H): 14.9 ± 5.7 % ID/g
Radioactive concentration in tumour (B16F0 melanoma tumour [2]; 3 H): 28.1 ± 8.9 % ID/g
Radioactive concentration in tumour (B16F0 melanoma tumour [2]; 6 H): 29.9 ± 2.8 % ID/g
Radioactive concentration in tumour (B16F0 melanoma tumour [2]; 24 H): 29.7 ± 3.1 % ID/g
Radioactive concentration in tumour (B16F0 melanoma tumour [2]; 72 H): 11.4 ± 2.6 % ID/g

melting point: 147 to 149 °C
Compound: CCN(CC)Cc1ccnc(F)c1CNC(=O)c1cnc2cc(I)ccc2n1 [Compound 91, N-[[4-(N,N-diethylaminomethyl)-2-fluoropyridin-3-yl]methyl]-6-iodoquinoxaline-2-carboxamide]

melting point: 80 °C and 79 to 81 °C
Compound: CCN(CC)CCNC(=O)c1cc(I)cc2c(F)ccnc12 [Compound 102, N-[2-(diethylamino)ethyl]-4-fluoro-6-iodoquinoline-8-carboxamide]

Compound: CCN(CCNC(=O)c1cnc2cc([131I])ccc2n1)CCOc1cccnc1F [[^131I]11, [^131I]N-[2-[N-ethyl-N-[2-(2-fluoropyridin-3-yloxy)ethyl]amino]ethyl]-6-iodoquinoxaline-2-carboxamide dihydrochloride salt]
Weight of tumours at 19 days ([3]; 2×18.5 MBq i.v. at days 6 and 10, controls 2.29±1.03 g, p=0.01): 0.72 ± 0.28 g
Tumour doubling time ([3]; 2×18.5 MBq i.v. at days 6 and 10 after tumour implantation, untreated 2.82±0.30 days): 3.83 ± 0.34 days
Body weight of mice ([3]; all groups, data not shown): stable
Ratio T/C of tumour weight at 19 days ([3]; treated vs controls): 0.31
Effect on B16F0 tumoural growth ([3]; tumour volume, p<0.001 vs untreated): significantly slowed the B16F0 tumoural growth

melting point: 146 to 148 °C
Compound: CCN(CCNC(=O)c1ccnc(F)c1)CCNC(=O)c1cnc2cc(I)ccc2n1 [Compound 39, N-[2-[N-ethyl-N-[2-[[(2-fluoropyridin-4-yl)carbonyl]amino]ethyl]amino]ethyl]-6-iodoquinoxaline-2-carboxamide]

Compound: CCN(CCNC(=O)c1cnc2cc(I)ccc2n1)CCOc1cccnc1[18F] [[^18F]10, [^18F]N-[2-[N-ethyl-N-[2-(2-fluoropyridin-3-yloxy)ethyl]amino]ethyl]-6-iodoquinoxaline-2-carboxamide]
Uptake (% injected dose per volume tumour graft) in B16F0 relative to B16F10 tumour grafts ([4]; 2 and 4 hours post injection, same animal, FIGS. 5 and 6): more than two-to-three times higher
Uptake in B16F0 with respect to B16F10 ([4]; dynamic PET, FIG. 7, Set 2): two-to-three times higher
Contrast between melanoma grafts and surrounding tissue on PET images ([4]; two to two-and-a-half hours and six to six-and-a-half hours post injection): evident contrast
Biodistribution in selected organs (% ID/CC), tumour targeting [5]: specifically target melanoma tumours in vivo

melting point: 59 °C and 58 to 60 °C
Compound: CCN(CC)CCNC(=O)c1cc(F)c2cc(I)ccc2n1 [Compound 106, N-[2-(diethylamino)ethyl]-4-fluoro-6-iodoquinoline-2-carboxamide]

melting point: 99 to 101 °C (dec.)
Compound: CCN(CCNC(=O)c1ccc2cc(I)ccc2n1)CCOc1cccnc1F.Cl.Cl

melting point: 127 to 129 °C (dec.)
Compound: CCN(CCNC(=O)c1cccc2nc3cc(I)ccc3nc12)CCOc1cccnc1F.Cl.Cl
